For series [1] the following is noted: in words; cited from earlier work.
The conditions of series [2]: cited from earlier work.
The conditions of series [3]: rhesus monkey, in vivo.
Procedure: Three adult male Rhesus monkeys were used for planar scintigraphic imaging. Anesthesia was induced with ketamine and maintained with 1-2% halothane in a 70/30 mixture of nitrous oxide and oxygen.
All acquisitions were performed using a Picker Digital Dyna Camera and a Siemens MicroDELTA terminal/MAXDELTA system. A high resolution parallel-hole collimator ("HEX48") was mounted on the camera. The general static acquisition protocol was employed, using an acquisition matrix of 128 by 128 pixels, in word mode. Linearity, Z- and uniformity correction as provided for in the camera console, were employed and maintained.
To provide correction for attenuation, a transmission image of each animal was required. This had to be acquired in such a fashion as to permit the location of individual organs to be delineated from an aligned emission image. To do this, an 18-inch commercial refillable flood source (Nuclear Associates, Carle Place, N.Y.) was filled with water on a flat, horizontal surface. It was then loaded with between 20 mCi (740 Mbq) and 30 mCi (1110 Mbq) of Tc99mO4^-, and placed on a rolling cart. A Picker high-resolution collimator was then placed atop the source and the cart positioned under the patient examination table of the camera.
For each animal, a transmission image was acquired immediately prior to the control study injection, in the following fashion: An initial "flood" image was taken of the collimated source with neither the animal nor the examination table in place. Without moving anything else, the examination table, with the anesthetized animal, was placed between the source and the camera. Images were then taken of both the upper and lower portions of the body using a 128×128 pixel matrix in word mode. Table positioning was restricted by the track system so that positioning markers were necessary only for the dimension parallel to the animal's vertical axis.
Without moving the camera, the source was withdrawn and removed from the room. Adjustments to the camera-subject distance were made only by raising or lowering the table. The control compound was then injected and the control study begun. In this way, organs could be identified from the control study and the regions applied to the transmission study to determine attenuation correction factors on a per-organ basis. In addition, an "efficiency" factor was determined from images taken of a small flask containing a measured amount of radioactivity.
Following the injection of Tc-99m labeled materials, images were acquired of each animal using "spot" views over the upper and lower portions of the body with conjugate views (i.e. 180-degree opposed views) for each.
The resulting image data was analyzed by creating regions of interest (ROI's) for each organ and determining the sum of the recorded gamma photons for each organ in each view. From the transmission view, an attenuation correction factor was derived for each organ and the activity in the organ determined by taking the square root of the product of the ROI sums for conjugate views of the organ and then multiplying by the attenuation correction factor for that organ and then by the efficiency factor.
Each animal was imaged with Tc-99m-(L,L)-N,N'-1,2-ethylenediylbiscysteine, diethyl ester in order to serve as its own control. One test isomer was then administered to each of the monkeys. Frequent blood samples were drawn from a peripheral leg vein. Regions of interest were drawn around all pertinent organs and time-activity curves were constructed.

Where two headings read alike, the source gives them in different places.

As for `O=C(O)CNC(=O)c1ccccc1[123I]` [Example I-123-OIH], the “radiation burden to the patient” value in series [1] is recorded as “much lower radiation burden to the patient”.

Take `O=C(O)CNC(=O)c1ccccc1[131I]` [Example I-131-OIH, I-131-o-iodohippurate]: the renal extraction efficiency in series [2] (in vivo) is given as 65-80%. In series [2] (in words), the “Route / rate of renal elimination” value is “rapidly removed from the blood by active tubular secretion”. In addition, the “radiation burden to the patient” value in series [1] is listed as “significant radiation burden to the patient”.

Take `Nc1ccc(C(=O)NCC(=O)O)cc1` [PAH, p-aminohippuric acid]: the “removed from the plasma by active secretion into the tubules” value in series [2] (in vivo) is recorded as “approximately 70%”.

Turning to “Tc-99m-(D,D)-N,N'-1,2-ethylenediylbiscysteine, diethyl ester [Example 5]”, in series [3] (30 min), the “Biodistribution: Brain” value is on record as 1.7 percentage of the initial inje, the “Biodistribution: Gall Bladder” value is reported as 5.5 percentage of the initial inje and the “Biodistribution: Urinary Bladder” value is reported as 5.0 percentage of the initial inje. In addition, in series [3] (60 min), the “Biodistribution: Brain” value is on record as 1.4 percentage of the initial inje, the “Biodistribution: Gall Bladder” value is recorded as 5.2 percentage of the initial inje and the “Biodistribution: Urinary Bladder” value was 15 percentage of the initial inje.

Consider “Tc-99m-(L,L)-N,N'-1,2-ethylenediylbiscysteine, diethyl ester [Example 4]”, for which, in series [3] (30 min), the “Biodistribution: Brain” value is listed as 5.8 percentage of the initial inje, the “Biodistribution: Gall Bladder” value is given as 10 percentage of the initial inje and the “Biodistribution: Urinary Bladder” value is 29 percentage of the initial inje. Moreover, in series [3] (60 min), the “Biodistribution: Brain” value is 5.6 percentage of the initial inje, the “Biodistribution: Gall Bladder” value is 17 percentage of the initial inje and the “Biodistribution: Urinary Bladder” value is recorded as 42 percentage of the initial inje.

With “Tc-99m-diethylenetriamine pentaacetic acid [Tc-99m-DTPA]”, in series [2] (in vivo), the maximum extraction efficiency is given as 20-25%. For the same compound, the “Route / rate of renal elimination” value in series [2] (in words) is recorded as “eliminated entirely or nearly entirely by glomerular filtration”.

Turning to “Tc-99m-mercaptoacetyltriglycine [Tc-99m-MAG3]”, in series [2] (in words), the “Route / rate of renal elimination” value was “secreted by the kidneys selectively by tubular secretion and approximately as rapidly as OIH”; the organ specificity result is “less than desired”.

“anti-Tc-99m-(D,L)-N,N'-1,2-ethylenediylbiscysteine, diethyl ester [Example 3]”: in series [3] (30 min), the “Biodistribution: Brain” value is given as 2.1 percentage of the initial inje, the “Biodistribution: Gall Bladder” value was 2.7 percentage of the initial inje and the “Biodistribution: Urinary Bladder” value was 4.2 percentage of the initial inje. Besides, in series [3] (60 min), the “Biodistribution: Brain” value is reported as 1.8 percentage of the initial inje, the “Biodistribution: Gall Bladder” value is recorded as 6.4 percentage of the initial inje and the “Biodistribution: Urinary Bladder” value is given as 4.0 percentage of the initial inje.

“syn-Tc-99m-(D,L)-N,N'-1,2-ethylenediylbiscysteine, diethyl ester [Example 2]”: in series [3], the Renal excretion entry is given as “most rapidly excreted” and the “Uptake in other organs / liver activity” value is “low uptake in other organs, especially the gall bladder”. Further, in series [3] (30 min), the “Biodistribution: Brain” value is 3.4 percentage of the initial inje, the “Biodistribution: Gall Bladder” value is listed as 2.2 percentage of the initial inje and the “Biodistribution: Urinary Bladder” value is recorded as 58 percentage of the initial inje. For the same compound, in series [3] (60 min), the “Biodistribution: Brain” value is on record as 3.0 percentage of the initial inje, the “Biodistribution: Gall Bladder” value is listed as 6.2 percentage of the initial inje and the “Biodistribution: Urinary Bladder” value is 74 percentage of the initial inje.

Source of the values: patent publication US5688485A, “Radiolabelled complexes of ester-substituted diaminethiols” (The DuPont Merck Pharmaceutical Company, priority 1992, dated 1997).
